# Results: the METLIN SMRT retention time set (Domingo-Almenara et al. 2019)
# Test: gradient 5% acetonitrile 3 min, to 50% in 2 min, to 85% in 15 min, held 3 min, 100 µL/min
# Conditions: column: Zorbax Extend-C18 2.1 x 50 mm; eluents: water / acetonitrile, 0.1% formic acid
# How it was run: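 Over 3 months, pure standards in mixtures of ~100 molecules were run by HPLC coupled to a quadrupole time-of-flight mass spectrometer in positive and negative ionization mode. The column was a Zorbax Extend-C18 (2.1 × 50 mm, 1.8 μm) at 100 μL/min, eluted with water and acetonitrile each holding 0.1% formic acid, with 40 μL dead and 900 μL dwell volumes. Retention time was determined from adduct peaks chosen by software and checked manually.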
row,SMILES,RP-LC retention time
1,Cc1cc2cc(CNC(=O)C(C)Oc3ccccc3)ccc2[nH]1 (stereo unspecified),792 s
2,COc1ccc(NC(=O)C2CC(=O)N(CCc3c[nH]c4ccc(OC)cc34)C2)cc1 (stereo unspecified),728 s
3,COCc1noc([C@@H]2CC(F)(F)CN2C(=O)c2ocnc2C)n1,679 s
4,Cc1ccc2c(c1)N(S(C)(=O)=O)CCC(C(=O)Nc1ccccc1F)O2 (stereo unspecified),918 s
5,Cc1cccc(-c2nc(-c3cn(-c4ccccc4)nn3)no2)c1,1060 s
6,Cc1ccc(C)c(Sc2ccc(N3CCC(C(=O)NC4CC4)CC3)nn2)c1,713 s
7,Cc1cc(C)cc(NC(=O)c2cccn2Cc2noc(C3CC3)n2)c1,994 s
8,O=C(Nc1ccccc1)N[C@H]1C[C@H](C(=O)O)Nc2cc(Cl)cc(Cl)c21,799 s
9,O=S(=O)(c1ccccc1-c1nc(-c2ccccc2)no1)N1CCN(C2CCCCC2)CC1,755 s
10,O=C(Nc1ccc(Cl)cc1F)C1CCCN(C(=O)Cc2cccc3ccccc23)C1 (stereo unspecified),1050 s
11,COc1ccc(-c2nc(NCCC(C)C)c3ccccc3n2)cc1,844 s
12,CN1CCN(c2ccc(-c3nc(-c4ccccc4)no3)cn2)CC1,664 s
13,Cc1ccc(F)c(NC(=O)C(C)C2CCN(C(=O)Nc3ccc(Cl)cc3)CC2)c1 (stereo unspecified),968 s
14,Cc1nnc2n1CCC(NC(=O)c1ccoc1)CC2 (stereo unspecified),532 s
15,O=C(C1CCCN(c2ncnc3c2nc2n3CCCCC2)C1)N1CCN(c2ncccn2)CC1 (stereo unspecified),690 s
16,Cc1cc(C)nc(Nc2nc(C(=O)O)cs2)n1,626 s
17,CCCn1cc(CCNS(=O)(=O)c2ccc(C(C)C)cc2)c2cccnc21,1030 s
18,CCCc1nc(-c2c(C)cc(C)nc2NC(=O)c2ccc(F)cc2F)no1,895 s
19,COc1ccc(C(=O)O)nc1C,552 s

row,SMILES,RP-LC retention time
1,CCCNC(=O)CCc1c(C)n(C)c2nc(-c3ccccc3)nn2c1=O,665 s
2,O=C(Cc1nnc2cc(-c3nc(C4CC4)no3)ccn12)NC1CCCCC1,737 s
3,COC(=O)c1ccc(Cl)cc1NC(=O)c1cc2ccccc2o1,1280 s
4,CCOc1ccc(Br)cc1CNc1ccc2[nH]c(=O)[nH]c2c1,668 s
5,O=C(NCCCN1CCCC1)C1CCCN(c2nccnc2Sc2ccccc2)C1 (stereo unspecified),659 s
6,O=C1COc2ccccc2N1Cc1nc(-c2ccc(Cl)cc2)no1,1070 s
7,CC(C)Cn1c(=O)c(N2CCN(C(=O)CCCc3ccccc3)CC2)nc2ccncc21,742 s
8,COCCCNC(=O)C1(CCO)CCN(Cc2ccccc2)C1 (stereo unspecified),560 s
9,COc1ccc(C)cc1NC(=O)Cn1c(N)nc(C)cc1=O,618 s
10,Cc1cc(C)cc(NC(=O)C(=O)NCC(c2ccc3c(c2)OCO3)N2CCOCC2)c1 (stereo unspecified),613 s
11,CCc1ccc(NC(=O)CN2C(=O)NC3(CCCCC3)C2=O)cc1,765 s
12,CCC(=O)N(C1CCOCC1)C1CCN(S(=O)(=O)c2ccc(Cl)c(C)c2)CC1,954 s
13,CCN(CC)CCCNC(=O)CN1C(=O)CCn2nc(-c3cn(C)c4ccccc34)cc21,613 s
14,O=C(Nc1cccc(-c2noc(C3CCC3)n2)c1)c1cccs1,1060 s
15,CC(C)C(=O)N1CCc2[nH]nc(C(=O)NCCCc3ccccc3)c2C1,756 s
16,O=C1CCSc2c1cccc2C(=O)N1CCOCC1,601 s
17,O=C(Cc1ccc(Br)cc1)N1CCN(C(=O)c2cc(-c3ccncc3)n[nH]2)CC1,622 s
18,CC(=O)N[C@@H](Cc1c[nH]c2ccccc12)C(=O)OCc1cc(C(F)(F)F)cc(C(F)(F)F)c1,1100 s
19,CN(C)CCNC(=O)c1cc2cc(S(=O)(=O)N(C)C)ccc2n1Cc1ccccc1,674 s

# The remaining lines, values ahead:
row,RP-LC retention time,SMILES
1,690 s,CCNC(=O)c1[nH]c2ccc(C)cc2c1N1CCCC1=O
2,631 s,Cc1ccccc1-c1ccc(N2CCN(C(=O)NC3CCCCC3)CC2)nn1
3,1180 s,Cc1cc(NS(=O)(=O)c2c(C)sc(C)c2-c2n[nH]c(C)c2C)ccc1Br
4,605 s,O=C(c1cc2c(s1)-c1ccccc1S(=O)(=O)C2)N1CCN(c2ccccn2)CC1
5,905 s,CCN(C(=O)C1CCCN(c2ncnc3c2nc2n3CCCCC2)C1)c1cc(C)ccc1C (stereo unspecified)
6,1090 s,CN(C)S(=O)(=O)N(CC(=O)Nc1cc(C(F)(F)F)ccc1Cl)c1ccccc1
7,1100 s,C=CCN(Cc1nc(-c2ccc(C)cc2)no1)C(=O)Nc1ccc(C)cc1
8,649 s,CCN1CCCn2nc(C3CCN(C(=O)c4cccnc4SC)CC3)cc2C1=O
9,1100 s,CCc1ccc(N2CC(c3noc(-c4ccc(F)cc4)n3)CC2=O)cc1 (stereo unspecified)
10,1200 s,CCc1ccc(N2CC(c3noc(-c4cccc(Cl)c4)n3)CC2=O)cc1 (stereo unspecified)
11,686 s,O=C(C1CC1)N1CCC(Cc2noc(C3CC3)n2)C1 (stereo unspecified)
12,1260 s,CCCCc1ccc(NC(=O)Cn2cnc3c(sc4nc(-c5ccccc5)ccc43)c2=O)cc1
13,812 s,CCOC(=O)c1c(C)oc2nc(C)nc(NCCCN(CC)c3cccc(C)c3)c12
14,676 s,CC(=O)c1cccc(NC(=O)CC2COc3ccccc3NC2=O)c1 (stereo unspecified)
15,739 s,CCOc1ccccc1CNC(=O)Cc1cn(C)c2ncccc12
16,623 s,Cc1nn(CC(=O)NCCN2CCCCC2)c(=O)c2nc(-c3ccccc3)sc12
17,640 s,O=S(=O)(c1cc(-c2nnc(C3CC3)o2)co1)N1CCN(c2ccccn2)CC1
18,900 s,O=C(Nc1cc(C(F)(F)F)ccc1Cl)c1cccc(Oc2ncccn2)c1
19,819 s,CN1c2ccc(Cl)cc2C(=O)NC12CCN(C(=O)NCCc1ccccc1)CC2
20,584 s,Cc1ccc2cc(CCC(=O)NCCCN3CCCCC3)c(=O)[nH]c2c1
21,597 s,Cc1ccc(NC(=O)NCC2(N3CCOCC3)CCOC2)c(C)c1 (stereo unspecified)
22,645 s,CCOc1ccc(-n2c(N3CCN(C)CC3)nc3cc(C(=O)OC)ccc3c2=O)cc1
23,746 s,Cc1ccc(CN2CCCN(c3ncccc3-c3nc(C(C)C)no3)CC2)cc1
24,749 s,CCOC(=O)Cn1c(C2CC(=O)N(Cc3ccccc3)C2)nc2ccccc21 (stereo unspecified)
25,882 s,O=C(c1cc(Cl)ccc1Cl)N1CCN(c2cc(-c3ccccc3)[nH]n2)CC1
26,1190 s,O=c1c2cc(-c3ccc(Br)cc3)nn2cnn1Cc1nc(-c2ccccc2)no1
27,964 s,CCS(=O)(=O)N1CCc2ccc(NC(=O)COc3ccc(Cl)cc3Cl)cc2C1

row,RP-LC retention time,SMILES
1,665 s,Cc1csc(CN2CCN(C(=O)CC(c3ccccc3)c3ccccc3)CC2)n1
2,613 s,COCCCNC(=O)C1CCN(c2ncnc3c2oc2ccccc23)CC1
3,945 s,COc1ccc(S(=O)(=O)N2CCc3c(c(-c4nnc(-c5ccc(F)cc5)o4)nn3C)C2)cc1
4,806 s,CCOc1cc(=O)n2c(c1C(=O)Nc1ccc(Cl)cc1F)CCCC2
5,906 s,O=c1n(Cc2ccc(Cl)cc2)nc2ccc(S(=O)(=O)N3CCCC3)cn12
6,764 s,Cc1nc(-c2cc3cccc(C)c3nc2NCCc2ccccn2)no1
7,1240 s,COc1ccccc1-c1nc(Cn2nnc(-c3nc(-c4ccc(C)c(C)c4)no3)c2C)c(C)o1
8,644 s,CCOC(=O)N1CCN(S(=O)(=O)c2cn(C)nc2C)CC1
9,596 s,O=C(c1ccco1)N1CCCC(c2nn[nH]n2)C1 (stereo unspecified)
10,1050 s,COc1ccc(-c2noc(Cc3nnc(-c4ccc(C)c(F)c4)o3)n2)cc1
11,612 s,CCn1cnnc1C1CCCN(C(=O)CCc2c[nH]c3ccccc23)C1 (stereo unspecified)
12,686 s,COc1ccc(NC(=O)N2CCN(Cc3nc4cc(Cl)ccc4o3)CC2)cc1OC
13,703 s,CCc1ccc2c(c1)-c1ccccc1S(=O)(=O)N2CC(=O)NCc1ccncc1
14,603 s,Cc1cccc(NC(=O)c2cn3c(n2)CCCC3)c1C
15,957 s,CN1C(=O)c2ccccc2Oc2ccc(C(=O)NCc3ccc(Cl)cc3)cc21
16,1050 s,O=C(NC1CCCCC1)N1CCc2nc(-c3ccc(Cl)cc3)ncc2C1
17,665 s,Cc1ccc(NC(=O)N2CCC(n3cnnc3C3CC3)C2)cc1C (stereo unspecified)
18,716 s,Cc1ccc(NS(=O)(=O)c2cc3n(c2)CCN(C)C3=O)cc1F
19,691 s,CC1=NN(CCC#N)C(=O)/C1=C\c1ccc(N(C)C)cc1
20,1230 s,Cc1ccc(-c2ccc(-n3nc(C)c(S(=O)(=O)N4CCCC(C)C4)c3C)nn2)cc1 (stereo unspecified)
21,928 s,COC(=O)c1cc2c(=O)n(-c3ccc(Cl)cc3Cl)ccc2nc1C
22,955 s,COc1ccc(C2(c3nc(-c4ccc(CNC(=O)C5CC5)s4)no3)CC2)cc1
23,594 s,COC[C@@H]1CN(c2cnccn2)C[C@H]1C(=O)NCC1CC1
24,708 s,COC(=O)c1cccc(NC(=O)c2c[nH]c3ncccc23)c1
25,604 s,CCN1CCN(Cc2nc(-c3ccc(N4CCSCC4)nc3)no2)CC1
26,988 s,COc1ccc(Cl)cc1NC(=O)N1CCc2c(c(COc3ccccc3)nn2C)C1
